Assay results published in paper PMC6271273, “Chemo-Enzymatic Synthesis of Silybin and 2,3-Dehydrosilybin Dimers” (Molecules, 2014).
“And” between values parts separate entries of the source, which are not always exact repeats. Identical values can stand only once. Marks after values point to notes of the source that are not given here.

Columns and labels:
[1] = Stability of dimers in buffers, HPLC; assay type: physicochemical; settings: PBS and phosphate buffers (0.2 M, pH 7.4), longer than 24 h
Procedure: The stability of the dimers in PBS buffer and phosphate buffer (0.2 M, pH 7.4) was monitored using an HPLC method. […] The chromatography was carried out in a Shimadzu Prominence UFLC system (Kyoto, Japan) consisting of a DGU-20A mobile phase degasser, two LC-20AD solvent delivery units, SIL-20ACHT cooling autosampler, CTO-10AS column oven and SPD-M20A (PDA, photodiode array detector). A Chromolith Performance RP-18e monolithic column (100 × 3 mm i.d.) and guard column (5 × 4.6 mm i.d., both Merck) were used. The PDA data were acquired in the 200–450 nm range and the 285 signal was extracted. Gradient elution: mobile phase A: 0.1% formic acid, 10% methanol in water (v/v/v); mobile phase B: 0.1% formic acid in methanol (v/v); gradient, 0–1 min, 20% B; 1–8 min, 20%–90% B; 8–9 min, 90% B, 9–10 min, 90%–20% B. The flow rate was 1.2 mL/min at 25 °C.

[2] = DPPH radical scavenging assay; assay type: biochemical; settings: for DPPH [% of inhibition]: 33 µM test compound, n = 4, absorbance at 517 nm after 30 min; for IC50: 20 µM DPPH, 30 min
Procedure: Antiradical activity was evaluated spectrophotometrically as the ability of the tested substances to reduce the 1,1-diphenyl-2-picrylhydrazyl (DPPH) radical as described previously with minor modifications. Briefly, a solution of the tested substance (10 µL, final concentration 0–540 µM) were mixed with a freshly prepared methanolic DPPH solution (290 µL, final concentration 20 µM) in a microtiter plate well. After 30 min, absorbance at 517 nm was measured, percentages of inhibition were calculated using the negative control and for selected compounds the IC50 values were obtained from the inhibition curves.

[3] = Square wave voltammetry (in situ / ex situ) at pyrolytic graphite electrode; assay type: physicochemical; settings: for Oxidation potential Ep1 / Oxidation potential Ep2: SWV, vs. Ag/AgCl/3 M KCl, pH 7.4, n = 3; for Oxidation potential Ep1: ascribed to oxidation of C-20 OH; for Oxidation potential Ep2: oxidation of resorcinol moiety (ring A); for Adsorption onto the electrode: ex situ (adsorptive transfer) SWV, open circuit potential
Procedure: The monomeric flavonolignans and their dimers were analyzed using in situ voltammetry with the working electrode (PGE: pyrolytic graphite electrode) dipped in the supporting electrolyte containing the analytes and/or ex situ voltammetric analysis (adsorptive transfer, AdT technique). For this purpose, the PGE was first dipped into a 5 µL aliquot of the studied sample. After an accumulation period (30 s), the electrode was washed with deionized water and placed in an electrochemical cell containing pure supporting electrolyte. Square-wave voltammetry (SWV) and cyclic voltammetry (CV) were performed at room temperature with a µAutolab III analyzer (EcoChemie, Utrecht, The Netherlands) in a three-electrode setup (Ag/AgCl 3M KCl electrode as a reference and a platinum wire as the auxiliary electrode). SWV parameters: frequency: 200 Hz, from 0 V to +1.5 V, concentration of tested compounds (50 µM), supporting electrolyte: Britton-Robinson buffer, pH 7.4. The flavonolignans analyzed were dissolved in methanol as a stock solution of 1 mg mL^−1 (stored in a fridge in the dark), and diluted with the supporting electrolyte and/or 0.2 M acetate buffer (pH 5) for in situ and/or ex situ voltammetry. Ex situ a.c. voltammetry (out-of-phase) was carried out with a hanging mercury drop electrode (HMDE) according to the previously published paper. In this case, the flavonolignans (50 µM) were adsorbed from 0.2 M acetate buffer (pH 5) for 30 s. For current responses and potentials (Ep), the standard deviations (S.D.) were less than ±3.55% and ±3 mV for all experiments, respectively.

[4] = system: human umbilical vein endothelial cells (HUVEC); assay: Cytotoxicity, MTT test, HUVEC; assay type: cell-based; settings: 24 h incubation, read-out: IC50 viability (MTT-reducing ability) HUVEC
Procedure: (§1) All the cells were cultured in a humidified atmosphere with 5% (v/v) CO2 at 37 °C and subcultured before conﬂuence. Human Umbilical Vein Endothelial Cells (HUVEC) were isolated from umbilical cords of healthy non-smoker women (18–35 years) as described previously, cultivated in gelatin-coated flasks in EGM and used in passages 2–6. Primary Normal human Adult epidermal Keratinocytes (NAK) were isolated from normal skin obtained from excessive tissue removed during abdominoplasty or mammoplasty of healthy adult patients as described in [36, 50], cultivated in EpiLife medium with the addition of HKGS. Mouse fibroblasts (BALB/c 3T3 cells) were purchased from the European Collection of Cell Cultures (ECACC, Salisbury, UK) and were grown in DMEM supplemented with heat-inactivated FCS (5%, v/v) and newborn FCS, streptomycin […] and glutamine (4 mM). Hepatocyte carcinoma HepG2 cells (No. 85011430, ECACC) were cultured at 37 °C in DMEM supplemented with 2 mM L-glutamine, 1% non-essential amino acids, 100 U/mL penicillin, […] and 10% fetal bovine serum (Invitrogen, Carlsbad, CA, USA).
(§2) The cells were plated into 96-well cell culture plates and grown to near confluence. The tested compounds were placed in the respective fresh medium in serial dilutions (100 µL/well) and incubated with the cells for 24 h. After incubation, the medium was removed, the cells were washed with PBS, fresh medium containing 1 mg/mL of MTT was added and the plates were incubated for a further 3 h (37 °C). The resulting formazan was dissolved in 50 µL of 1% NH3 in DMSO, absorbance was read at 540 nm and IC50 values were obtained graphically from the dependence of cell viability on the concentration of the tested compound.

[5] = system: normal human adult epidermal keratinocytes (NAK); assay: Cytotoxicity, MTT test, NAK; assay type: cell-based; settings: Keratinocyte, 24 h incubation, read-out: IC50 viability (MTT-reducing ability) NAK
Procedure: as §1, §2

HepG2 cells = assay: Cytotoxicity, MTT test, HepG2; assay type: cell-based; settings: Homo sapiens, 24 h incubation, read-out: IC50 viability (MTT-reducing ability) HepG2
Procedure: as §1, §2

rat liver microsomes = assay: Inhibition of microsomal lipid peroxidation induced by tert-butyl hydroperoxide (TBARS); assay type: biochemical; settings: for IC50: rat liver microsomes, 1 mM tert-butyl hydroperoxide, TBARS
Procedure: Microsomes were prepared from rat liver homogenate as described previously and resuspended in 50 mM Tris-HCl buffer with 100 mM KCl and 0.1 mM EDTA (pH 7.4). The protein concentration in the stock microsomal suspension was determined using the Bradford method to be typically ca 30 mg protein/mL. This stock suspension was stored at −80 °C and diluted to 0.625 mg protein/mL using PBS before use. 0.4 mL of the diluted microsomal suspension was then mixed with the compounds tested (final concentration 10–200 µM in 0.01 mL DMSO) and incubated for 10 min at 37 °C. tert-Butyl hydroperoxide (0.09 mL in PBS; final concentration 1 mM) was then added and the mixture was incubated at 37 °C for 30 min. The products of lipid peroxidation were determined as thiobarbituric acid reactive substances (TBARS): 0.7 mL of […] were added, the mixture was heated (90 °C; 30 min), cooled, centrifuged (10 min; 10,000 rpm; 4 °C) and the absorbance of the supernatant at 535 nm measured. The activity was calculated as the concentration of the tested compound that inhibited the color reaction with thiobarbiturate (without the tested compound) by 50% (IC50).

[6] = Cytotoxicity, MTT test, range over all cells other than NAK; assay type: cell-based; settings: human (HUVEC, HepG2) and mouse (BALB/c 3T3), all cells used other than NAK (HUVEC, BALB/c 3T3, HepG2), read-out: Cytotoxicity IC50, range over cell types
Procedure: as §1, §2

[7] = system: mouse fibroblasts (BALB/c 3T3); assay: Cytotoxicity, MTT test, BALB/c 3T3; assay type: cell-based; settings: BALB/c3T3, 24 h incubation, read-out: IC50 viability (MTT-reducing ability) BALB/c 3T3
Procedure: as §1, §2

Row | Stability during longer incubation [1] | Oxidation potential Ep1 [3] | Oxidation potential Ep2 [3] | IC50 [2] | IC50 (rat liver microsomes) | Activity relative to the parent molecule 1a, microsomal lipid peroxidation (rat liver microsomes; stated jointly for DPPH scavenging and microsomal lipid peroxidation tests) | Compound | DPPH [% of inhibition] [2] | IC50 [4] | IC50 [5] | IC50 (HepG2 cells) | IC50 at 24 h [6] | Adsorption onto the electrode [3] | IC50 [7] | DPPH [% of inhibition] ([2]; 33 µM)
1 |  | 0.57 V | 0.99 V | 29 ± 0.7 µM | 59.2 ± 5.9 µM |  | COc1cc(C2Oc3cc(-c4oc5cc(O)cc(O)c5c(=O)c4O)ccc3OC2COC(=O)CCCCCCCCCCC(=O)OCC2Oc3ccc(-c4oc5cc(O)cc(O)c5c(=O)c4O)cc3OC2c2ccc(O)c(OC)c2)ccc1O (stereo not shown) [Compound 7, bis((3-(4-Hydroxy-3-methoxyphenyl)-6-(3,5,7-trihydroxy-4-oxo-4H-chromen-2-yl)-2,3-dihydrobenzo-[b][1,4]dioxin-2-yl)methyl) dodecanedioate] | 33.4 ± 3.1 ^c % | 98.4 ± 10.6 µM | > 200 µM | 172 ± 11.6 µM | 99 to 173 µM | strictly limited and practically impossible | 161 ± 9 µM | 
2 |  | 0.54 V | 0.92 V | 6.43 ± 0.3 µM | 14.5 ± 0.73 µM |  | COc1cc(C2Oc3cc(-c4oc5cc(O)cc(O)c5c(=O)c4O)ccc3OC2CO)ccc1O (stereo not shown) [Compound 6, 2,3-Dehydrosilybin] |  | 20.9 ± 4.6 µM | > 200 µM | 58.4 ± 9 µM | 12 to 59 µM |  | 11.9 ± 3 µM | 83% and 82.9 ± 0.2 ^b %

The remaining lines, values behind:

Row | Compound | Stability during longer incubation [1] | Oxidation potential Ep1 [3] | Oxidation potential Ep2 [3] | IC50 [2] | IC50 (rat liver microsomes) | Activity relative to the parent molecule 1a, microsomal lipid peroxidation (rat liver microsomes; stated jointly for DPPH scavenging and microsomal lipid peroxidation tests) | DPPH [% of inhibition] [2] | IC50 [4] | IC50 [5] | IC50 (HepG2 cells) | IC50 at 24 h [6] | Adsorption onto the electrode [3] | IC50 [7] | DPPH [% of inhibition] ([2]; 33 µM)
3 | COc1cc([C@H]2Oc3cc([C@H]4Oc5cc(O)cc(O)c5C(=O)[C@@H]4O)ccc3O[C@@H]2COC(=O)CCCCCCCCCCC(=O)OC[C@@H]2Oc3ccc([C@H]4Oc5cc(O)cc(O)c5C(=O)[C@@H]4O)cc3O[C@H]2c2ccc(O)c(OC)c2)ccc1O [Compound 5, 1-(((2R,3R)-3-(4-Hydroxy-3-methoxyphenyl)-6-((2R,3R)-3,5,7-trihydroxy-4-oxochroman-2-yl)-2,3-dihydrobenzo[b][1,4]dioxin-2-yl)methyl) 12-(((2S,3S)-3-(4-hydroxy-3-methoxyphenyl)-6-((2R,3R)-3,5,7-trihydroxy-4-oxochroman-2-yl)-2,3-dihydrobenzo[b][1,4]dioxin-2-yl)methyl) dodecanedioate] | signs of instability (decomposition) | 0.55 V | 0.83 V |  |  |  | 7.0 ± 2.9 ^a % |  |  |  |  |  |  | 
4 | COc1cc([C@H]2Oc3cc([C@H]4Oc5cc(O)cc(O)c5C(=O)[C@@H]4O)ccc3O[C@@H]2CO)ccc1O [Compound 1a, silybin A] |  |  |  | 225 ± 9.4 µM | 53.7 ± 6.1 µM |  | 6.6 ± 1.7 ^a % | 57.8 ± 3.6 µM | > 200 µM | 165 ± 8.1 µM | 60 to 166 µM |  | 131 ± 8 µM | 
5 | COc1cc([C@@H]2Oc3cc([C@H]4Oc5cc(O)cc(O)c5C(=O)[C@@H]4O)ccc3O[C@H]2COC(=O)CCCCCCCCCCC(=O)OC[C@@H]2Oc3ccc([C@H]4Oc5cc(O)cc(O)c5C(=O)[C@@H]4O)cc3O[C@H]2c2ccc(O)c(OC)c2)ccc1O [Compound 4, bis(((2S,3S)-3-(4-Hydroxy-3-methoxyphenyl)-6-((2R,3R)-3,5,7-trihydroxy-4-oxochroman-2-yl)-2,3-dihydrobenzo[b][1,4]dioxin-2-yl)methyl) dodecanedioate] | signs of instability (decomposition) | 0.57 V | 0.83 V |  |  |  | 9.0 ± 3.0 ^a % |  |  |  |  |  |  | 
6 | COc1cc([C@H]2Oc3cc([C@H]4Oc5cc(O)cc(O)c5C(=O)[C@@H]4O)ccc3O[C@@H]2COC(=O)CCCCCCCCCCC(=O)OC[C@H]2Oc3ccc([C@H]4Oc5cc(O)cc(O)c5C(=O)[C@@H]4O)cc3O[C@@H]2c2ccc(O)c(OC)c2)ccc1O [Compound 3, bis(((2R,3R)-3-(4-Hydroxy-3-methoxyphenyl)-6-((2R,3R)-3,5,7-trihydroxy-4-oxochroman-2-yl)-2,3-dihydrobenzo[b][1,4]dioxin-2-yl)methyl) dodecanedioate] |  | 0.56 V | 0.83 V | 137 ± 7.5 µM | 34 ± 4.3 µM | approximately 1.6 times | 7.1 ± 2.8 ^a % | 7.6 ± 1.9 µM | > 200 µM | 51.8 ± 5.9 µM | 8 to 44 µM | strictly limited and practically impossible | 23.5 ± 5.6 µM | 
